Test results: US20110039763A1, “TARGETED ANTIMICROBIAL MOIETIES” (C3 JIAN, INC., priority 2009, published 2011)
“Also recorded” adds a separate entry of the source.

How the values were obtained:
microorganisms [1] = test: Peptide activities: targeting/binding, antimicrobial, growth or phenotype altering (Tables 7, 8); format: cell-based; conditions: peptides having multiple activities
microorganisms [2] = test: Targeting peptide binding to target microorganisms (Tables 3, 10, 12); conditions: microorganism(s) the targeting peptide binds; binding in aqueous buffers that varied with peptide solubility, preferably 1x PBS
microorganisms [3] = test: Morphology, biofilm and growth disrupting peptides (Table 5); format: cell-based; design: key: A: Peptide aggregates; B: Less hyphal formation; Clumps; Diffuse clumps and small polyps; F: Diffuse growth; H: Thin; I: Growth inhibition; Microcolony formation; Rippled; Small polyps; Thick; W: Halo formation on top, microlonies on bottom
Source text: In certain embodiments peptides that induce alterations in phenotype or other biological activities can also be used as antimicrobial effector moieties.

PF-003: peptide having multiple activities (MNNWIKVAQISVTVINEVIDIMKEKQNGGK; Peptide with targeting and/or antimicrobial activity)
Activities (microorganisms [1]): G B
Target(s) (microorganisms [2]): S. epidermidis and M. luteus and P. mirabilis and C. albicans and MRSA and C. jeikeium
Organism, effect: C. jeikeium (microorganisms [3]): C. jeikeium (A)
Organism, effect: M. luteus (microorganisms [3]): M. luteus (A)
Organism, effect: MRSA (microorganisms [3]): MRSA (R)
Organism, effect: S. epidermidis (microorganisms [3]): S. epidermidis (D)

PF-008: peptide having multiple activities (MIEIGSIAYLNGGSKKYNHILNQENR; Peptide with targeting and/or antimicrobial activity)
Activities (microorganisms [1]): G B
Target(s) (microorganisms [2]): S. epidermidis and M. luteus and MRSA and C. jejuni
Organism, effect: B. subtilis (microorganisms [3]; B. subtilis): B. subtilis (D)
Organism, effect: C. jejuni (microorganisms [3]; C. jejuni): C. jejuni (R)

PF-009: peptide having multiple activities (SKKYNHILNQENR; Peptide with targeting and/or antimicrobial activity)
Activities (microorganisms [1]): G B
Target(s) (microorganisms [2]): M. luteus; also recorded: P. mirabilis; also recorded: C. albicans
Organism, effect: S. epidermidis (microorganisms [3]): S. epidermidis (S)

PF-010: peptide having multiple activities (MDIDVNKLLQAFVYFKSFEKLRHNNS; Peptide with targeting and/or antimicrobial activity)
Activities (microorganisms [1]): G B
Target(s) (microorganisms [2]): S. epidermidis; also recorded: M. luteus; also recorded: E. coli; also recorded: C. albicans
Organism, effect: C. jeikeium (microorganisms [3]): C. jeikeium (A)
Organism, effect: M. luteus (microorganisms [3]): M. luteus (A)
Organism, effect: MRSA (microorganisms [3]): MRSA (R)
Organism, effect: S. epidermidis (microorganisms [3]): S. epidermidis (S)

PF-011: peptide having multiple activities (MFCYYKQHKGDNFSIEEVKNIIADNEMKVN; Peptide with targeting and/or antimicrobial activity)
Activities (microorganisms [1]): G B
Target(s) (microorganisms [2]): M. luteus; also recorded: E. coli; also recorded: P. aeruginosa; also recorded: S. pneumoniae; also recorded: C. jeikeium
Organism, effect: C. jeikeium (microorganisms [3]): C. jeikeium (C)
Organism, effect: MRSA (microorganisms [3]): MRSA (R)

PF-015: peptide having multiple activities (SIDKRNLYNLKYYE; Peptide with targeting and/or antimicrobial activity)
Activities (microorganisms [1]): G B
Target(s) (microorganisms [2]): E. faecalis; also recorded: C. jeikeium
Organism, effect: MRSA (microorganisms [3]): MRSA (W)

PF-017: peptide having multiple activities (ESIIE; Peptide with targeting and/or antimicrobial activity)
Activities (microorganisms [1]): G B
Target(s) (microorganisms [2]): E. coli
Organism, effect: MRSA (microorganisms [3]): MRSA (M)

PF-020: peptide having multiple activities (MKIILLLFLIFGFIVVVTLKSEHQLTLFSI; Peptide with targeting and/or antimicrobial activity)
Activities (microorganisms [1]): G B
Target(s) (microorganisms [2]): S. epidermidis and M. luteus and C. albicans and MRSA and S. pneumoniae and E. faecalis
Organism, effect: M. luteus (microorganisms [3]): M. luteus (C)
Organism, effect: MRSA (microorganisms [3]): MRSA (C)
Organism, effect: S. epidermidis (microorganisms [3]): S. epidermidis (C)
Organism, effect: S. mutans (microorganisms [3]; S. mutans, class symbol): S. mutans (F)
Organism, effect: S. pneumoniae (microorganisms [3]; S. pneumoniae): S. pneumoniae (D)

PF-021: peptide having multiple activities (FSLNFSKQKYVTVN; Peptide with targeting and/or antimicrobial activity)
Activities (microorganisms [1]): G B
Target(s) (microorganisms [2]): S. epidermidis; also recorded: M. luteus; also recorded: P. mirabilis; also recorded: E. coli; also recorded: C. albicans; also recorded: E. faecalis; also recorded: C. jeikeium
Organism, effect: C. jeikeium (microorganisms [3]): C. jeikeium (R)
Organism, effect: M. luteus (microorganisms [3]): M. luteus (A)
Organism, effect: MRSA (microorganisms [3]): MRSA (R)
Organism, effect: S. epidermidis (microorganisms [3]): S. epidermidis (A)

PF-024: peptide having multiple activities (DLRKAK; Peptide with targeting and/or antimicrobial activity)
Activities (microorganisms [1]): G B
Target(s) (microorganisms [2]): M. luteus and C. albicans and MRSA and E. faecalis and C. jeikeium
Organism, effect: MRSA (microorganisms [3]): MRSA (M)
Organism, effect: S. epidermidis (microorganisms [3]): S. epidermidis (D)

PF-025: peptide having multiple activities (LLIIFRLWLELKWKNKK; Peptide with targeting and/or antimicrobial activity)
Activities (microorganisms [1]): G B
Target(s) (microorganisms [2]): S. epidermidis and M. luteus and P. mirabilis and E. coli and P. aeruginosa and MRSA and E. faecalis and C. jejuni
Organism, effect: C. jeikeium (microorganisms [3]): C. jeikeium (A)
Organism, effect: M. luteus (microorganisms [3]): M. luteus (A)
Organism, effect: MRSA (microorganisms [3]): MRSA (R)
Organism, effect: S. epidermidis (microorganisms [3]): S. epidermidis (S)

PF-026: peptide having multiple activities (SIHFIN; Peptide with targeting and/or antimicrobial activity)
Activities (microorganisms [1]): G B
Target(s) (microorganisms [2]): S. epidermidis and M. luteus and P. mirabilis and C. albicans and MRSA and E. faecalis and C. jeikeium
Organism, effect: MRSA (microorganisms [3]): MRSA (M)

PF-027: peptide having multiple activities (HNARKYLEFISQKIDGDKLTKEDSL; Peptide with targeting and/or antimicrobial activity)
Activities (microorganisms [1]): G B
Target(s) (microorganisms [2]): M. luteus and MRSA and E. faecalis and C. jejuni
Organism, effect: MRSA (microorganisms [3]): MRSA (M)
Organism, effect: S. epidermidis (microorganisms [3]): S. epidermidis (D)

PF-029: peptide having multiple activities (NSTNE; Peptide with targeting and/or antimicrobial activity)
Activities (microorganisms [1]): G B
Target(s) (microorganisms [2]): S. epidermidis; also recorded: M. luteus; also recorded: C. albicans; also recorded: C. jejuni
Organism, effect: MRSA (microorganisms [3]): MRSA (M)

PF-031: peptide having multiple activities (MPHHSTTSSRIVVPAHQSNMASTPNLSITP; Peptide with targeting and/or antimicrobial activity)
Activities (microorganisms [1]): G B
Target(s) (microorganisms [2]): M. luteus; also recorded: C. albicans
Organism, effect: MRSA (microorganisms [3]): MRSA (M)

PF-034: peptide having multiple activities (EPKKKHFPKMESASSEP; Peptide with targeting and/or antimicrobial activity)
Activities (microorganisms [1]): G B
Target(s) (microorganisms [2]): M. luteus
Organism, effect: S. epidermidis (microorganisms [3]): S. epidermidis (A)

PF-035: peptide having multiple activities (SFYESY; Peptide with targeting and/or antimicrobial activity)
Activities (microorganisms [1]): G B
Target(s) (microorganisms [2]): S. epidermidis and M. luteus and E. coli and C. albicans and MRSA and C. jeikeium and C. jejuni
Organism, effect: MRSA (microorganisms [3]): MRSA (M)

PF-036: peptide having multiple activities (ILNRLSRIVSNEVTSLIYSLK; Peptide with targeting and/or antimicrobial activity)
Activities (microorganisms [1]): G B
Target(s) (microorganisms [2]): S. epidermidis and M. luteus and P. mirabilis and E. coli and C. albicans and MRSA and S. pneumoniae and C. jejuni
Organism, effect: C. jeikeium (microorganisms [3]): C. jeikeium (A)
Organism, effect: M. luteus (microorganisms [3]): M. luteus (A)
Organism, effect: MRSA (microorganisms [3]): MRSA (R)
Organism, effect: S. epidermidis (microorganisms [3]): S. epidermidis (S)
